From patent US11945812B2, “Annulated 2-amino-3-cyano thiophenes and derivatives for the treatment of cancer” (Boehringer Ingelheim International GmbH, priority 2020, dated 2024)
Where two headings read alike, the source gives them in different places.

Legend:
[1] = test system: ERK phosphorylation in NCI-H358_Cas9_SOS2; assay: ERK phosphorylation assay 2 (AlphaLISA SureFire Ultra p-ERK1/2), SOS2 knock-out; format: cell-based; conditions: Homo sapiens, NCI-H358; assay 2 (marked with *); read-out: IC50 H358 pERK
Text: (§1) ERK Phosphorylation Assay
(§2) Materials Used for the Assay;

[2] = target: Ba/F3 cells bearing a KRAS G12C mutation (Homo sapiens, UniProt P01116, G12C, cells depend on it); assay: Ba/F3 cell model proliferation assay (AlamarBlue, 72 h); format: cell-based
Description: Ba/F3 Cell Model Generation and Proliferation Assay
Plasmids containing KRASG12 mutants were obtained from GeneScript. To generate KRASG12-dependent Ba/F3 models, Ba/F3 cells were transduced with retroviruses containing vectors that harbor KRASG12 isoforms. Platinum-E cells (Cell Biolabs) were used for retrovirus packaging. Retrovirus was added to Ba/F3 cells. To ensure infection, 4 μg/mL polybrene was added and cells were spinfected. […] Cells with an infection efficiency of 10% to 20% were further cultivated and puromycin selection with 1 μg/mL was initiated. As a control, parental Ba/F3 cells were used to show selection status. Selection was considered successful when parental Ba/F3 cells cultures died. To evaluate the transforming potential of KRASG12 mutations, the growth medium was no longer supplemented with IL-3. Ba/F3 cells harboring the empty vector were used as a control. Approximately ten days before conducting the experiments, puromycin was left out.
All treatments were performed in technical duplicates. The assay is run using a fully automated robotic system. Treated cells were incubated for 72 h at 37° C. with 5% CO2. AlamarBlue™ (ThermoFisher), a viability stain, was added and fluorescence measured in the PerkinElmer Envision HTS Multilabel Reader.

[3] = Plasma protein binding (equilibrium dialysis), serum 10% FCS in PBS; format: in vitro ADME; conditions: bovine, 10% FCS in PBS (serum), read-out: PPB 10% FCS fu
Description: (§3) Plasma Protein Binding (PPB)
(§4) Binding of test compound to plasma was determined using equilibrium dialysis (ED) and quantitative mass spectrometry interfaced with liquid chromatography (LC-MS). In brief, ED was performed with dialysis devices consisting of two chambers separated by a semipermeable membrane with a molecular weight cut-off of 5-10 kg/mol. One chamber was filled with commercially sourced plasma (mouse and human plasma, respectively) or serum (10% FCS in PBS) containing 1-10 μmol/L test compound and the other chamber was filled with phosphate-buffer saline (PBS) with or without dextran. The dialysis chamber was incubated for 3-5 hours at 37° C. After incubation, protein was precipitated from aliquots of each chamber and the concentration of test compound in the supernatant of the plasma-containing compartment (cplasma) and of the buffer-containing compartment (Cbuffer) was determined by LC-MS. The fraction of unbound test compound (not bound to plasma) (fu) was calculated according to the following equation: […]

[4] = target: T1, KRAS G12C::SOS1 protein-protein interaction (Homo sapiens, UniProt P01116, C118S/C51S/C80L/G12C); assay: KRAS::SOS1 AlphaScreen binding assay
T1 construct: His6 (N); host or cells: E. coli
Text: KRAS::SOS1 AlphaScreen Binding Assay
Reagents: • GST-tagged SOS1 (564_1049_GST_TEV_ECO) produced in-house • GST-TEV-SOS1 (564-1049) is purchased from Viva Biotech Ltd. • The expression construct of KRAS G12C (amino acids 1-169 of reference sequence P01116-2 (uniprot), with additional mutations: C51S, C80L, and C118S) containing a C-terminal avi-tag was obtained by gene synthesis (GeneArt, Thermo Fisher) in donor vector (pDONR-221) and transferred by recombinant cloning into pDEST17 vector bearing an N-terminal His6-tag. The protein was expressed in E. coli and the purified protein was biotinylated with the E. coli biotin ligase (BirA) before usage. • GDP (Sigma Cat No G7127) • AlphaLISA Glutathione Acceptor Beads (PerkinElmer, Cat No AL109) • AlphaScreen Streptavidin Donor Beads (PerkinElmer Cat No 6760002) • Assay plates: Proxiplate-384 PLUS, white (PerkinElmer, Cat No 6008289)
Assay Buffer: • 1×PBS • 0.1% BSA • 0.05% Tween 20
7.5 nM (final assay concentration) KRAS G12C, 10 μM (final assay concentration) GDP and 5 nM (final assay concentration) GST-SOS1 are mixed in assay buffer prior to use and kept at room temperature.
AlphaLISA Glutathione Acceptor Beads and AlphaScreen Streptavidin Donor Beads are mixed in assay buffer at a concentration of 10 μg/mL (final assay concentration) each prior to use and kept at room temperature.
Compounds are diluted to a final start concentration of 100 μM and are tested in duplicate. Assay-ready plates (ARPs) are generated using an Access Labcyte Workstation with a Labcyte Echo 550 or 555 accoustic dispenser. For compound a start concentration of 100 μM, 150 nL of compound solution is transferred per well in 11 concentrations in duplicate with serial 1:5 dilutions.
The assay is run using a fully automated robotic system in a darkened room below 100 Lux. 10 μL of KRAS::SOS1 GDP mix is added into columns 1-24 to the 150 nL of compound solution (final dilution in the assay 1:100, final DMSO concentration 1%).
After 30 minutes incubation time 5 μL of bead mix is added into columns 1-23. Plates are kept at room temperature in a darkened incubator. After further 60 minutes incubation, the signal is measured using a PerkinElmer Envision HTS Multilabel Reader using the AlphaScreen specifications from PerkinElmer. Each plate contains the following controls: • diluted DMSO+KRAS::SOS1 GDP mix+bead mix • diluted DMSO+KRAS::SOS1 GDP mix
IC50 values are calculated and analyzed using a 4 parametric logistic model.
Tables of example compounds disclosed herein contain IC50 values determined using the above assay.

[5] = Plasma protein binding (equilibrium dialysis), human plasma; format: in vitro ADME; conditions: read-out: PPB human fu
Description: as §3, §4

[6] = Plasma protein binding (equilibrium dialysis), mouse plasma; format: in vitro ADME; conditions: read-out: PPB mouse fu
Description: as §3, §4

SW837 cells = assay: SW837 CTG proliferation assay (CRC); format: cell-based; conditions: Homo sapiens
Description: SW837 CTG Proliferation Assay (CRC)
SW837 cells (ATCC #CCL-235) were grown in cell culture flasks (175 cm^2) using L-15 10% FCS, 1% L-Glu, 1×NEAA and 1×Na-Pyrovat. Cultures were incubated at 37° C. and 0% CO2 in a humidified atmosphere, with medium change or subcultivation 2-3 times a week. Materials used for the assay were CulturPlate-384, White Opaque 384-well Microplate, Sterile and Tissue Culture Treated (Perkin Elmer #6007680), Leibovitz L15 Medium and FBS # SH30071.03 (HyClone).
(§5) The proliferation assays started (day1) with seeding cells in flat bottom 384 well microtiter plates in 90 μL L-15 10% FCS, 1% L-Glu, 1×NEAA and 1× Na-Pyrovat at a density of 500 cells/well. Any other luminescence compatible plate format is possible. On day 2, 10 μL dilutions of the test compounds covering a concentration range between app. 0, 1 and 10.000 nM were added to the cells. Cells were incubated for 5 days in a humidified, CO2 controlled (no CO2) incubator at 37° C. On day 7 100 μL of Cell Titer Glow reagent (Cell titer Glo Luminescent Cat. No. G7571, Promega) were added to each well and incubated for additional 10 min at room temperature (with agitation). Luminescence was measured on a Wallac Victor using standard luminescence read out. IC50 values were calculated using standard Levenburg Marquard algorithms (GraphPad Prism).

NCI-H358 cells = assay: NCI-H358 CTG proliferation assay (120 h) (NSCLC); format: cell-based; conditions: Homo sapiens, read-out: IC50 NCl-H358
Description: NCI-H358 CTG Proliferation Assay (120 h) (NSCLC)
NCI-H358 cells (ATCC No. CRL-5807) were dispensed into white bottom opaque 96 well plates (Perkin Elmer cat no. 5680) at a density of 2000 cells per well in 100 μL RPMI-1640 ATCC-Formulation (Gibco # A10491)+10% FCS. Cells were incubated overnight at 37° C. in a humidified tissue culture incubator at 5% CO2. Compounds (10 mM stock in DMSO) were added at logarithmic dose series using the HP Digital Dispenser D300 (Tecan), normalizing for added DMSO. For the TO time point measurement, untreated cells were analyzed at the time of compound addition. Plates were incubated for 120 hours, and cell viability was measured using CellTiter-Glo luminescent cell viability reagent (Promega product code G7570). Viability (stated as percent of control) is defined as relative luminescence units RLU of each well divided by the RLU of cells in DMSO controls. IC50 values were determined from viability measurements by non-linear regression using a four parameter model.

MiaPaCa-2 cells = assay: MiaPaCa-2 CTG proliferation assay (pancreatic cancer); format: cell-based; conditions: Homo sapiens, MIA PaCa-2, 120 h, read-out: IC50 MiaPACA2
Description: MiaPaCa-2 CTG Proliferation Assay (Pancreatic Cancer)
MiaPaCa-2 cells (ATCC® CRM-CRL-1420™) were grown in cell culture flasks (175 cm^2) using DMEM medium supplemented with 10% fetal bovine serum. […] Materials used for the assay were CulturPlate-384, White Opaque 384-well microplate, Sterile and Tissue Culture Treated (Perkin Elmer #6007680), DMEM medium and FBS # SH30071.03 (HyClone).
as §5, with “μL DMEM medium supplemented with” for “μL L-15”, “10% FBS” for “10% FCS, 1% L-Glu, 1×NEAA and 1× Na-Pyrovat”, “humidified, incubator with 5%” for “humidified,”, “CO2” for “CO2 controlled (no CO2) incubator”, “100 μl” for “100 μL”

[7] = test system: ERK phosphorylation in NCI-H358 (KRAS G12C mutation); assay: ERK phosphorylation assay 1 (AlphaLISA SureFire Ultra p-ERK1/2); format: cell-based; conditions: Homo sapiens, assay 1 (not marked with *), read-out: IC50 H358 pERK
Text: as §1, §2

[8] = Ba/F3 KRAS G12C cells, 72 h, 10% FCS, uncorrected, read-out: IC50 Ba/F3 KRASG12C
[9] = corrected by plasma protein binding in 10% FCS (fraction unbound), read-out: IC50 Ba/F3 KRASG12C (corrected)
[10] = SW837 CTG proliferation, read-out: IC50 SW837
[11] = MiaPaCa-2 CTG proliferation, 5 days

T1 sequence (P01116 1-169 isoform P01116-2 G12C/C51S/C80L/C118S): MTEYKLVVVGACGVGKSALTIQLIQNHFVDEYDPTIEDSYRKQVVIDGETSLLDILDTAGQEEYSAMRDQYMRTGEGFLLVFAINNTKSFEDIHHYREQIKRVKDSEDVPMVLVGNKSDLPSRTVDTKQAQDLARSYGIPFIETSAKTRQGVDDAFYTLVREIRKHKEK
Ba/F3 cells bearing a KRAS G12C mutation, sequence (P01116 whole entry G12C): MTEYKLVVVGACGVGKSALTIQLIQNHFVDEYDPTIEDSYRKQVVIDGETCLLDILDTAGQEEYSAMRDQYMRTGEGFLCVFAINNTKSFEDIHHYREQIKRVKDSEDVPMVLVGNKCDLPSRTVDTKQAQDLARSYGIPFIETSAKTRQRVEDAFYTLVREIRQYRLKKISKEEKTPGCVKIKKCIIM

| SMILES | IC50 [1] | GI50 [2, 8] | GI50 [2, 9] | fraction unbound [3] | IC50 ([4]; KRAS G12C::SOS1 AlphaScreen) | fraction unbound [5] | fraction unbound [6] | IC50 (SW837 cells; [10]) | IC50 (NCI-H358 cells) | IC50 (MiaPaCa-2 cells; [11]) | IC50 ([4]; KRAS G12C 7.5 nM, GST-SOS1 5 nM, GDP 10 μM) | IC50 [7] | IC50 (SW837 cells; SW837, read-out: IC50 SW837) | IC50 (MiaPaCa-2 cells) |
| --- | --- | --- | --- | --- | --- | --- | --- | --- | --- | --- | --- | --- | --- | --- |
| C=C(F)C(=O)N1CCC(Oc2cc(O[C@@H](C)[C@@H]3CCCN3C)nc(-c3cc([C@@]4(C)CCCc5sc(N)c(C#N)c54)sn3)n2)CC1 [Id-8] | 16.1 nM | 4.3 nM | 1.51 nM | 0.352 | 3 nM | 0.004 | < 0.0009 | – | – | – | – | – | – | – |
| C=CC(=O)N1CCN(c2cc(N3CCN(C)CC3)nc(-n3cc(C4(C)CCCc5sc(N)c(C#N)c54)cn3)c2)CC1 (stereo not drawn) [Ie-1] | – | – | – | – | – | – | – | – | – | – | 280 nM | 125 nM | – | – |
| C=CC(=O)N1CCN(c2nc(=O)n(-c3c(C)ccnc3C(C)C)c3nc(-c4c(O)cccc4F)c(F)cc23)[C@@H](C)C1 [sotorasib, reference compound] | – | – | – | 0.774 | – | 0.027 | 0.094 | – | – | – | – | – | 17 nM | 49 nM |

Results, then the compound that gave them:

| IC50 [1] | GI50 [2, 8] | GI50 [2, 9] | fraction unbound [3] | IC50 ([4]; KRAS G12C::SOS1 AlphaScreen) | fraction unbound [5] | fraction unbound [6] | IC50 (SW837 cells; [10]) | IC50 (NCI-H358 cells) | IC50 (MiaPaCa-2 cells; [11]) | IC50 ([4]; KRAS G12C 7.5 nM, GST-SOS1 5 nM, GDP 10 μM) | IC50 [7] | IC50 (SW837 cells; SW837, read-out: IC50 SW837) | IC50 (MiaPaCa-2 cells) | SMILES |
| --- | --- | --- | --- | --- | --- | --- | --- | --- | --- | --- | --- | --- | --- | --- |
| 969 nM | 124 nM | 5.45 nM | 0.044 | 42 nM | 0.02 | 0.002 | – | – | – | – | – | – | – | COC/C=C/C(=O)N1CCN(c2cc(O[C@@H](C)[C@@H]3CCCN3C)nc(-c3cc([C@@]4(C)CCCc5sc(N)c(C#N)c54)on3)n2)CC12CC2 [Ib-16] |
| 1.6 nM | 1.5 nM | – | – | 3 nM | – | – | 1.3 nM | 3.13 nM | 23.8 nM | – | – | – | – | C=CC(=O)N1CCN(c2cc(O[C@@H](C)[C@@H]3CCCN3C)nc(-c3cc(C4(C)CCCc5sc(N)c(C#N)c54)no3)n2)CC1 (stereo partly drawn) [Ic-1] |
| 3.7 nM | 2.3 nM | – | – | 2 nM | – | – | 3.67 nM | 4.75 nM | 9.01 nM | – | – | – | – | C=CC(=O)N1CCN(c2cc(O[C@@H](C)[C@@H]3CCCN3C)nc(-c3cc([C@@]4(C)CCCc5sc(N)c(C#N)c54)no3)n2)[C@H](C)C1 [Ic-2] |
